Legend:
[1] = system: T1, CbrR; conditions: labelled compound (32P); 10 mM Tris pH 8.0, 5 mM MgCl2, 100 mM NaCl; active-site mutant
T1 construct: gene CJJ81176_0671
Target sequence in this assay (A0A0H3PJ41 whole entry E334A): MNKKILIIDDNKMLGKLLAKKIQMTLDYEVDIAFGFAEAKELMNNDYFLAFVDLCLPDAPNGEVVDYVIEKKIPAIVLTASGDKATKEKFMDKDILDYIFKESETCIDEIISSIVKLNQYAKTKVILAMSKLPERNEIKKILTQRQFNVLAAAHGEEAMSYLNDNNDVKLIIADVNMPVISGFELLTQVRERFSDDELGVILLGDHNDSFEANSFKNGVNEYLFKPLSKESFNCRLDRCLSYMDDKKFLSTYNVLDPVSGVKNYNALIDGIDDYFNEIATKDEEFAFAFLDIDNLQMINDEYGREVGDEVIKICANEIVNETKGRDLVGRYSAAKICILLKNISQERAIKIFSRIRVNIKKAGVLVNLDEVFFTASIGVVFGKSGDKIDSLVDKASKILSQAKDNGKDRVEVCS

[2] = system: T1, CbrR; conditions: labelled compound (32P); 10 mM Tris pH 8.0, 5 mM MgCl2, 100 mM NaCl; I-site mutant
Target sequence in this assay (A0A0H3PJ41 whole entry K323A/G324A/R325A/D326A): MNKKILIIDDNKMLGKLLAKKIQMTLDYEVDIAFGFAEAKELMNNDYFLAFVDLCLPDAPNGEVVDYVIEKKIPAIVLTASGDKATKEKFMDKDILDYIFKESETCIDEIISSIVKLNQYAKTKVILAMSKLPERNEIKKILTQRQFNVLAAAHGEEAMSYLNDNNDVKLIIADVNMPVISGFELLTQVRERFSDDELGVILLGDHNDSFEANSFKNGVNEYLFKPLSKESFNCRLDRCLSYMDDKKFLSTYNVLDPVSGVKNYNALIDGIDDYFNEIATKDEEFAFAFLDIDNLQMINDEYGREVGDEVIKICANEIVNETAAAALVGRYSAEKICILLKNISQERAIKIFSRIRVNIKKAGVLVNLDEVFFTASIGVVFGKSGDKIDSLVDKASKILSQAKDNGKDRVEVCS

Compound	DRaCALA, nitrocellulose spot [1]	binding [2]
Nc1nc2c(ncn2[C@@H]2O[C@H](COP(=O)(O)OP(=O)(O)OP(=O)(O)O)[C@@H](O)[C@H]2O)c(=O)[nH]1 [GTP]	did not affect binding of either GTP or c-di-GMP	–
Nc1nc2c(ncn2[C@@H]2O[C@@H]3COP(=O)(O)O[C@H]4[C@@H](O)[C@H](n5cnc6c(=O)[nH]c(N)nc65)O[C@@H]4COP(=O)(O)O[C@H]3[C@H]2O)c(=O)[nH]1 [c-di-GMP]	did not affect binding of either GTP or c-di-GMP	substitution of the I-site in the protein led to the loss of c-di-GMP binding
